The text below walks through data of ChEMBL document CHEMBL1151586, “Design and synthesis of 10-oxo derivative of N-cyclopropylmethyl ()-6-acetylthiodihydro-normorphine, a potentially -selective opioid receptor ligand” (Bioorg Med Chem Lett, 1995).

The species entered for test [1] is Cavia porcellus. Put plainly: Inhibition of the twitch response of the guinea pig longitudinal muscle strip to electrical stimulation in a concentration-dependent manner. It counts as functional, Muscle tissue.
The species named for test [2] is Cavia porcellus. In words: Inhibition of the twitch response of the guinea pig ileal strip to electrical stimulation. It is filed as functional. The note with it: read-out: pA2 (converted).

Consider `CC(=O)Oc1ccc2c3c1O[C@H]1[C@H](SC(C)=O)C=CC4[C@@H](C2)N(CC2CC2)CC[C@@]341` (some centres undefined), for which, in the test filed under Cavia porcellus [1], the pD2 stood at 8.4 M.

With `CC(=O)Oc1ccc2c3c1O[C@H]1[C@H](SC(C)=O)CCC4[C@@H](C2=O)N(CC2CC2)CC[C@@]341` (some centres undefined), the Kb in the test filed under Cavia porcellus [2] was 0.0355 nM. This compound returned a pD2 in the test filed under Cavia porcellus [1] of 9.03 M.

`CN1CC[C@]23c4c5ccc(O)c4O[C@H]2[C@@H](O)C=C[C@H]3[C@H]1C5` [MORPHINE] returned a pD2 in the test listed under Cavia porcellus [1] of 7.23 M.
